Assay results: patent publication US12564591B2, “HCK as a therapeutic target in MYD88 mutated diseases” (Dana-Farber Cancer Institute, Inc., priority 2019, dated 2026)
Entries after “also recorded” stand apart in the source; their conditions may differ. Like-named read-outs stand apart in the source and are kept apart here.

Columns and labels:
panel of 464 kinases = assay: KINOMEscan kinome selectivity profiling (DiscoverX); assay type: binding; conditions: for S(1) score / S(10) score: 1.0 μM, panel of over 460 kinases
Procedure: The compounds were profiled at a concentration of 1.0 μM against a panel of over 460 kinases by DiscoverX.

[1] = Pharmacokinetics of A419259 under oral administration
LYN [2] = biological target: T1, LYN (Homo sapiens, UniProt P07948); assay: Enzymatic assay (SelectScreen, Life Technologies); assay type: biochemical
[3] = tested on: kinases in TMD8 ABC DLBCL cells; assay: KiNativ live-cell target engagement profiling (desthiobiotin-ATP probe); assay type: cell-based
BTK [4] = biological target: T2, BTK (Homo sapiens, UniProt Q06187); assay: ATP-competitive pulldown assay (desthiobiotin-ATP probe, western blot) in live BCWM.1 and TMD8 cells; assay type: cell-based; conditions: live cell pre-treatment
[5] = tested on: p-HCK and p-BTK in WM patients LPCs; assay: p-HCK and p-BTK by PhosFlow in MYD88 mutated WM patient bone marrow tumor cells; assay type: cell-based, human
Procedure: (§1) The anti-tumor activity of Compound (I) was also assessed using primary MYD88 mutated bone marrow derived CD19-positive lymphoplasmacytic cells (LPCs) from WM patients, and compared effects against healthy donor CD19+ B-cells.

[6] = tested on: MYD88 mutated WM and ABC DLBCL cell lines versus MYD88 wild-type GCB DLBCL, Burkitt's Lymphoma, and multiple myeloma cell lines; assay: CellTiter-Glo cell viability, MYD88 mutated versus wild-type cell lines; assay type: cell-based
[7] = tested on: primary MYD88 mutated bone marrow derived CD19-positive lymphoplasmacytic cells (LPCs) from WM patients; assay: Apoptosis of primary WM patient lymphoplasmacytic cells; assay type: cell-based, human
Procedure: as §1

[8] = tested on: healthy donor CD19+ B-cells; assay: Apoptosis of healthy donor B-cells; assay type: cell-based, human
Procedure: as §1

[9] = tested on: vector, HCK^WT or HCK^T333M transduced BCWM.1 cells; assay: HCK^T333M gatekeeper mutant rescue, dose-response 72 hours; assay type: cell-based; conditions: versus vector or wild-type HCK transduced BCWM.1 cells
Source text: (§2) An HCK gatekeeper mutant HCK^T333M was generated and rescue experiments performed in MYD88 mutated BCWM.1 cells. Expression of HCK^T333M produced a more than 20-fold increase in resistance to Compound (I) versus vector or wild-type HCK transduced BCWM.1 cells (FIG. 5A).

[10] = tested on: vector, HCK^WT or HCK^T333M transduced MWCL-1 WM cells; assay: as above; assay type: cell-based
Procedure: Dose-responses of vector only or HCK^WT or HCK^T333M transduced MWCL-1 cells following the treatment Compound (I) for 72 hours (FIG. 6A).

[11] = tested on: vector, HCK^WT or HCK^T333M transduced TMD8 ABC DLBCL cells; assay: as above; assay type: cell-based
Procedure: Dose-responses of vector only or HCK^WT or HCK^T333M transduced […] cells following the treatment Compound (I) for 72 hours (FIG. 7A).

[12] = tested on: HCK activation (pHCK^Y411); assay: pHCK by PhosFlow in HCK^WT or HCK^T333M transduced BCWM.1 cells; assay type: cell-based; conditions: HCK^T333M but not HCK^WT expressing BCWM.1 cells
Source text: as §2

[13] = tested on: pBTK, pAKT, pERK1/2, and pSYK; assay: Western blot of downstream signaling in HCK^WT or HCK^T333M transduced BCWM.1 cells; assay type: cell-based
Source text: as §2

[14] = Liver microsome stability; assay type: in vitro ADME; conditions: mouse, liver microsomes
[15] = Liver microsome stability; assay type: in vitro ADME; conditions: rat, liver microsomes
[16] = Liver microsome stability; assay type: in vitro ADME; conditions: dog, liver microsomes; dogs; read-out: half-life t1/2 with purified microsomes
[17] = Liver microsome stability; assay type: in vitro ADME; conditions: human, liver microsomes
[18] = Murine pharmacokinetics (intravenous and oral); assay type: in vivo; conditions: mouse, serum; for bioavailability: read-out: bioavailability (% F)
CYP1A = assay: In vitro CYP inhibition; assay type: in vitro ADME; parameters: dose or concentration left out as unconfirmed; conditions: at 10 PM; read-out: CYP inhibition (1A)
Source text: (§3) […]. […] […].

CYP2B6 = CYP2B6 (Homo sapiens, UniProt P20813); assay: In vitro CYP inhibition; assay type: in vitro ADME; parameters: dose or concentration left out as unconfirmed; conditions: at 10 PM, read-out: CYP inhibition (2B6)
Source text: as §3

CYP2C19 = CYP2C19 (Homo sapiens, UniProt P33261); assay: In vitro CYP inhibition; assay type: in vitro ADME; parameters: dose or concentration left out as unconfirmed; conditions: at 10 PM, read-out: CYP inhibition (2C19)
Source text: as §3

CYP2C8 = CYP2C8 (Homo sapiens, UniProt P10632); assay: In vitro CYP inhibition; assay type: in vitro ADME; parameters: dose or concentration left out as unconfirmed; conditions: at 10 PM, read-out: CYP inhibition (2C8)
Source text: as §3

CYP2C9 = CYP2C9 (Homo sapiens, UniProt P11712); assay: In vitro CYP inhibition; assay type: in vitro ADME; parameters: dose or concentration left out as unconfirmed; conditions: at 10 PM, read-out: CYP inhibition (2C9)
Source text: as §3

CYP2D6 = CYP2D6 (Homo sapiens, UniProt P10635); assay: In vitro CYP inhibition; assay type: in vitro ADME; parameters: dose or concentration left out as unconfirmed; conditions: at 10 PM, read-out: CYP inhibition (2D6)
Source text: as §3

hERG = hERG (Homo sapiens, UniProt Q12809); assay: hERG testing (patch clamp) for cardiotoxicity; assay type: cell-based; conditions: at 16 μM
Source text: as §3

[19] = Tolerability study, daily oral dosing; assay type: in vivo; conditions: up to 75 mg/kg daily oral dosing, NOD-SCID mice dosed for >6 weeks, no adverse events observed
Source text: as §3

Plasma protein binding = assay type: in vitro ADME
Source text: as §3

[20] = Survivability of treated subjects; assay type: in vivo; conditions: compared to subjects treated with other BTK inhibitors (e.g., ibrutinib, A419259)
[21] = tested on: Salmonella typhimurium tester strains (TA98, TA100, TA1535 and TA1537); assay: Ames genotoxicity testing; conditions: up to 50 μM with and without metabolic activation by rat liver S9 fraction
BTK [22] = biological target: T2, BTK; assay: Enzymatic / biochemical kinase assay (SelectScreen, Life Technologies); parameters: purchased Life Technologies (SelectScreen)
HCK [23] = biological target: T3, HCK (Homo sapiens, UniProt P08631); assay: ATP-competitive pulldown assay (desthiobiotin-ATP probe, western blot) in live BCWM.1 and TMD8 cells; assay type: cell-based; parameters: purchased Life Technologies (SelectScreen); conditions: live cell pre-treatment
LYN [24] = biological target: T1, LYN; assay: as above; assay type: cell-based; parameters: endogenous in cells; host or cells: BCWM.1 and TMD8 cells
HCK [25] = biological target: T3, HCK; assay: Enzymatic / biochemical kinase assay (SelectScreen, Life Technologies)
[26] = tested on: HCK phosphorylation at Thr^209; conditions: MYD88 mutated WM and ABC DLBCL cells
[27] = tested on: BTK and ERK 1/2 phosphorylation; conditions: vector only, and BTK^WT transduced BCWM.1 or TMD8 cells, 1.0 hour
[28] = HCK^T333M expressing BCWM.1 cells
[29] = read-out: T1/2 in liver microsomes

T2 sequence (Q06187 whole entry): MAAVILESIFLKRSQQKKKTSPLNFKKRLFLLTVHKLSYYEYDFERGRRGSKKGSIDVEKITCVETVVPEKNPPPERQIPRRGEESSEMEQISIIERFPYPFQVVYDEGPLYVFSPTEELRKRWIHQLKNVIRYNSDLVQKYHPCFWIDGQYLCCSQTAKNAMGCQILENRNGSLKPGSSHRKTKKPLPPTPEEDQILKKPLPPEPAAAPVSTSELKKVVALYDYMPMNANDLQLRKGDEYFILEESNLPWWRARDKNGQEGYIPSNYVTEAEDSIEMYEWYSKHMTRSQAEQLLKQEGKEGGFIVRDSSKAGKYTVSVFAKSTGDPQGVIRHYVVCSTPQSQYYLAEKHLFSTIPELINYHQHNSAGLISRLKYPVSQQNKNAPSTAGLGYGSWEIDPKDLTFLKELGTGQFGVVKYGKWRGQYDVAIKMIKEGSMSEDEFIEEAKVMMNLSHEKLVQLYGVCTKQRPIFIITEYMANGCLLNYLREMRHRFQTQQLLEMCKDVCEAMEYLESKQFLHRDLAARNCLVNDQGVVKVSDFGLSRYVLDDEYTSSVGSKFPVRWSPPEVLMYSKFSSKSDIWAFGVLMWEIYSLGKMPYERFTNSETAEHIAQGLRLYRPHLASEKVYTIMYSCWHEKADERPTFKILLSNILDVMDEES
T3 sequence (P08631 whole entry): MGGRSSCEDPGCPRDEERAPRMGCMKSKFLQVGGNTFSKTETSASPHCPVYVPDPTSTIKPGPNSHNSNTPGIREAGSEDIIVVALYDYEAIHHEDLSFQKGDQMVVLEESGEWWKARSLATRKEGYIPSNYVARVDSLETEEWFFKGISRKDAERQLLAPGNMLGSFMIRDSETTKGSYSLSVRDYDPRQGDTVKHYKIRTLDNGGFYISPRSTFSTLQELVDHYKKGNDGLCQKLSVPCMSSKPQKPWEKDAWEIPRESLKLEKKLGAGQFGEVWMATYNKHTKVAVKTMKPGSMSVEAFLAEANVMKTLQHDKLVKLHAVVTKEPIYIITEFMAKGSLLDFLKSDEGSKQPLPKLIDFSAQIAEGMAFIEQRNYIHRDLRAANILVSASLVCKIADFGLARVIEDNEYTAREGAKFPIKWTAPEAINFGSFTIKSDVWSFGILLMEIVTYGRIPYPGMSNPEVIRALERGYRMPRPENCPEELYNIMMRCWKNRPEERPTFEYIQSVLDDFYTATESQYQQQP
T1 sequence (P07948 whole entry): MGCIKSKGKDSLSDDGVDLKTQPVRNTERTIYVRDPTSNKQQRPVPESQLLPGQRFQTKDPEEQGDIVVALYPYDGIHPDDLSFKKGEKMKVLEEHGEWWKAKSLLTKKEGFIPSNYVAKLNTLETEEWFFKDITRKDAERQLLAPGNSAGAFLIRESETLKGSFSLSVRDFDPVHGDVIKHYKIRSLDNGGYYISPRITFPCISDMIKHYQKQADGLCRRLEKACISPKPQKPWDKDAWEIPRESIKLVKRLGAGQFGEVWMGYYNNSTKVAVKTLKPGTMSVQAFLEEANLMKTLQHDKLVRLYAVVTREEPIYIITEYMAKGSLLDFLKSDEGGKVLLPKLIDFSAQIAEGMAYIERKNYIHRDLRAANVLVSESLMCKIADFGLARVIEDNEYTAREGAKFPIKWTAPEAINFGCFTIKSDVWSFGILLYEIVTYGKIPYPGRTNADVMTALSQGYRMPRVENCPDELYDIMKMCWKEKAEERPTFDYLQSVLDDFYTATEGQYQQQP
CYP2C9, sequence (P11712 whole entry): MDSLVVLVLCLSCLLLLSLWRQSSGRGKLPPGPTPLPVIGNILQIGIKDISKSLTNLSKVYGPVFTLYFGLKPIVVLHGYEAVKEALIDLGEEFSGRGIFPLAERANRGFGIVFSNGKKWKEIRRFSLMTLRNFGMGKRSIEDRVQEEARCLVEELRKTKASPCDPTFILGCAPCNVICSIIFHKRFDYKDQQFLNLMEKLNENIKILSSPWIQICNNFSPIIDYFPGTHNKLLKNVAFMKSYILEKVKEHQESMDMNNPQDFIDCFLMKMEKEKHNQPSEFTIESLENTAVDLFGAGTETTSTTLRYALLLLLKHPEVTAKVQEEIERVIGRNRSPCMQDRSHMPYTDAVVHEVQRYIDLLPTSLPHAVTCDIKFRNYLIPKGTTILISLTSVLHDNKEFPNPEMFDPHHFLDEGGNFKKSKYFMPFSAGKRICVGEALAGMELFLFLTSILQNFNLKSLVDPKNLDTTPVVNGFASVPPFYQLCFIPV
CYP2B6, sequence (P20813 whole entry): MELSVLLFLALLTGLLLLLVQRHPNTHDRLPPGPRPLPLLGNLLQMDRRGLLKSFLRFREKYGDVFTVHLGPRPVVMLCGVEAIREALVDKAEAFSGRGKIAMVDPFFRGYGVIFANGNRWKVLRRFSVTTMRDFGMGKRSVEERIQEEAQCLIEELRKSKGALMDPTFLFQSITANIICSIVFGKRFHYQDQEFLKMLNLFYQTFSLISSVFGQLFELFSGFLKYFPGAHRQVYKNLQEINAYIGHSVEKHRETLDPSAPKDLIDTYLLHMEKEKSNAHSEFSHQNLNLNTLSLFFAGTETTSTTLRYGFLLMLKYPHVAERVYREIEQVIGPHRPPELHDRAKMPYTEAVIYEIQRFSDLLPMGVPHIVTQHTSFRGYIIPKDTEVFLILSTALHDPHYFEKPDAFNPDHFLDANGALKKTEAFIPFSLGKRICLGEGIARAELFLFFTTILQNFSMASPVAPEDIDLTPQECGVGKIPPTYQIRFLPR
CYP2C19, sequence (P33261 whole entry): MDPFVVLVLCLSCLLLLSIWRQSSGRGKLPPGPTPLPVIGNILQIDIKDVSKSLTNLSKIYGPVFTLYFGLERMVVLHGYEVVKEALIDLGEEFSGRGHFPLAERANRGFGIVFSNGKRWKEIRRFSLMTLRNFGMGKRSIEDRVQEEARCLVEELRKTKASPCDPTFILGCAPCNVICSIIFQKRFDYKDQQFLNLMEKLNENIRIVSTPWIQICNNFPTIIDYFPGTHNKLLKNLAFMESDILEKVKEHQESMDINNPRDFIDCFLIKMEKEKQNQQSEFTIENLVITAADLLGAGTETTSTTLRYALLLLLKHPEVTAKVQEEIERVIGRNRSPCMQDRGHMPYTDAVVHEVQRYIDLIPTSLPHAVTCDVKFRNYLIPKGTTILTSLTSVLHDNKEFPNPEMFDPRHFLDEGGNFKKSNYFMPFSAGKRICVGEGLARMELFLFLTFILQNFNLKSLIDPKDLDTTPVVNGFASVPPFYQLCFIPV
hERG, sequence (Q12809 whole entry): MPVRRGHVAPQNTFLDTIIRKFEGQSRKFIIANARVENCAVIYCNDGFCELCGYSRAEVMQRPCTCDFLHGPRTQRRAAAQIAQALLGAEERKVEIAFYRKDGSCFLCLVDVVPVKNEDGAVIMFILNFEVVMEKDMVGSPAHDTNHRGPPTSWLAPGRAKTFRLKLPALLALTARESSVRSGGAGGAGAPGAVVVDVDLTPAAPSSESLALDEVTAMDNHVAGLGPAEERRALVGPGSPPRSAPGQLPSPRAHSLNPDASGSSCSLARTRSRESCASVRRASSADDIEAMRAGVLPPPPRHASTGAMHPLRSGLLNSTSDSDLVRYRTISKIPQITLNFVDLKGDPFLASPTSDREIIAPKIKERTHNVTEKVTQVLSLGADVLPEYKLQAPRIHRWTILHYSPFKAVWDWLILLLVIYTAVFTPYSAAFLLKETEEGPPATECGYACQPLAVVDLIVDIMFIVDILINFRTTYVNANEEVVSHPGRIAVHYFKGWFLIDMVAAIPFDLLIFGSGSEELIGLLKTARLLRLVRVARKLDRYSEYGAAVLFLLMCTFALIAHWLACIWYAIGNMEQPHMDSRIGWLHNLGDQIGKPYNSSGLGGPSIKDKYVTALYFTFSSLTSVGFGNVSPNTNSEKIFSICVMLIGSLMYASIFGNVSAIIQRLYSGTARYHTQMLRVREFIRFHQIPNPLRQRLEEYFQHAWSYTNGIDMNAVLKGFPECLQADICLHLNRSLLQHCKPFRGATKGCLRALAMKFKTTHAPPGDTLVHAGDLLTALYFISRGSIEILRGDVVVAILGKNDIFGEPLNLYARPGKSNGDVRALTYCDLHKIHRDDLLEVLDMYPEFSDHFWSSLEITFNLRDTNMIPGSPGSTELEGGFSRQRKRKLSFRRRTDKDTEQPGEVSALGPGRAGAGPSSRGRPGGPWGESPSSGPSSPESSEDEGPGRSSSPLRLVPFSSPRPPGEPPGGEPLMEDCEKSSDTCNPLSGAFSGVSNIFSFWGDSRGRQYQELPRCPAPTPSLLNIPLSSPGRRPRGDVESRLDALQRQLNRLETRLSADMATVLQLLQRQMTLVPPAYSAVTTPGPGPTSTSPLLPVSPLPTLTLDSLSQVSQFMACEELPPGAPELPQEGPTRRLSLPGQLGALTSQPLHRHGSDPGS
CYP2C8, sequence (P10632 whole entry): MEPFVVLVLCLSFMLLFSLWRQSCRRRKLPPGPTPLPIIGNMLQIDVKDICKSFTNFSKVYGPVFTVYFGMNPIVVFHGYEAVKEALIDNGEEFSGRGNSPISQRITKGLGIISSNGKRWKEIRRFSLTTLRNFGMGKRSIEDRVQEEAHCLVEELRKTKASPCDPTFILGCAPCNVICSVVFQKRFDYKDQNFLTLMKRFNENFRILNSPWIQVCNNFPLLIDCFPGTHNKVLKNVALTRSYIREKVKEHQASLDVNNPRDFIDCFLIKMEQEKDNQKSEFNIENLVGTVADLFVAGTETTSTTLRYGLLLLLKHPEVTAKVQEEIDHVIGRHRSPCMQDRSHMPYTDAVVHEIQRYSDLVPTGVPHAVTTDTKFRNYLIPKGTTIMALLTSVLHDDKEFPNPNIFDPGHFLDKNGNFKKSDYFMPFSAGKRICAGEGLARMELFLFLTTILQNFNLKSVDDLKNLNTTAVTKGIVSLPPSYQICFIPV

SMILES: CN1CCN(C2CCC(n3cc(-c4ccc(Oc5ccccc5)cc4)c4c(N)ncnc43)CC2)CC1 (stereo not shown) [Compound A419259, reference compound]
- S(1) score (panel of 464 kinases): 0.07
- S(10) score (panel of 464 kinases): 0.13
- Tui2 [1]: 176.0 h

SMILES: CN1CCN(C2CCC(n3nc(-c4ccc(Oc5ccccc5)cc4)c4c(N)ncnc43)CC2)CC1 (stereo not shown) [Compound (I), 1-((1r,4r)-4-(4-methylpiperazin-1-yl)cyclohexyl)-3-(4-phenoxyphenyl)-1H-pyrazolo[3,4-d]pyrimidin-4-amine]
- IC50s (in words) (LYN [2]): single-digit nanomolar
- S(1) score (panel of 464 kinases): 0.07
- S(10) score (panel of 464 kinases): 0.13
- S10 (panel of 464 kinases; panel of 464 kinases): 0.07
- S35 (panel of 464 kinases; panel of 464 kinases): 0.13
- targeted kinases (panel of 464 kinases; panel of 464 kinases): mainly limited to the Src-family kinases HCK, BLK, LYN, and FRK, and the Tec-family kinase BTK
- activity against SRC-family kinases (HCK, BLK, LYN, FRK), Tec-family kinases (BTK), ACK (TNK2), CSK, ErbB2, and ABL [3]: nanomolar activity
- target engagement (block of kinase binding to desthiobiotin-ATP probe) ([3]; TMD8 ABC DLBCL cells treated at 1. μM): strongly targeted both HCK and BTK
- BTK inhibition / binding (BTK [4]): effectively binds
- p-HCK and p-BTK levels [5]: reduction of p-HCK(T209) and p-BTK^Y223
- anti-tumor activity [6]: targeted anti-tumor activity
- apoptotic effect [7]: robust apoptosis
- apoptotic effect [8]: no apoptotic effect
- increase in resistance by expression of HCK^T333M [9]: more than 20 fold
- effect of HCK^T333M on compound induced cell death [10]: rescues Compound (I) induced cell death
- effect of HCK^T333M on compound induced cell death [11]: rescues Compound (I) induced cell death
- HCK activation in the presence of compound [12]: persistent activation of HCK
- attenuation of pBTK, pAKT, pERK1/2, and pSYK [13, 28]: abrogated
- pBTK [13, 28]: continued to show reduced activity
- expression of pBTK, pAKT, pERK1/2, and p-SYK ([13]; HCK^WT expressing BCWM.1 cells): blocked the expression of pBTK, pAKT, pERK1/2, and p-SYK in a dose dependent manner
- half-life ([14]; mice, read-out: half-life t1/2 with purified microsomes): 1.77 h
- half-life [14, 29]: ≥ 1 h
- half-life ([15]; rats, read-out: half-life t1/2 with purified microsomes): > 2 h
- half-life [15, 29]: ≥ 1 h
- half-life [16]: 1 h
- half-life ([17]; humans, read-out: half-life t1/2 with purified microsomes): 0.825 h
- half-life [17, 29]: ≥ 1 h
- clearance ([18]; intravenous, 2 mg/kg, read-out: in vivo clearance rate): 17.4 mL/min/kg
- bioavailability ([18]; po, 10 mg/kg, 10 mg/kg oral): 49%
- bioavailability ([18]; po, 25 mg/kg, 25 mg/kg oral): 55%
- AUC ([18]; po, orally at 10 mg/kg): 5.2 µM·h
- half-life ([18]; po, orally at 10 mg/kg and 25 mg/kg, read-out: T1/2): 15.1 to 16.9 h
- AUC ([18]; po, orally at 25 mg/kg): 11.4 µM·h
- half-life ([18]; 10 mg/kg oral, read-out: serum half-life (converted)): 15.1 h
- half-life ([18]; 25 mg/kg oral, read-out: serum half-life (converted)): 16.9 h
- half-life ([18]; intravenous administration (2 mg/kg), read-out: serum half-life (converted)): 11.5 h
- inhibition (CYP1A): -27.9%
- inhibition (CYP2B6): 64.5%
- inhibition (CYP2C19): 0.8%
- inhibition (CYP2C8): -3.8%
- inhibition (CYP2C9): -10.9%
- inhibition (CYP2D6): 24.9%
- hERG cardiotoxicity (patch clamp) (hERG): negative
- tolerability [19]: well-tolerated
- fraction unbound (Plasma protein binding; dog, dogs): 0.05
- fraction unbound (Plasma protein binding; human, humans): 0.043
- fraction unbound (Plasma protein binding; mouse, mice): 0.023
- fraction unbound (Plasma protein binding; rat, rats): 0.045
- survivability [20]: increased survivability
- Ames genotoxicity [21]: negative
- IC50s (in words) (BTK [22]): single-digit nanomolar
- engagement of / binding to HCK (HCK [23]): robust engagement; also recorded: very strongly binds
- binding to LYN (LYN [24]): very strongly binds
- IC50s (in words) (HCK [25]): single-digit nanomolar
- inhibition of HCK phosphorylation [26]: robust inhibition
- BTK and ERK 1/2 phosphorylation [27]: effectively blocked

SMILES: CN1CCN([C@H]2CC[C@H](n3nc(-c4ccc(Oc5ccccc5)cc4)c4c(N)ncnc43)CC2)CC1 [Compound (I), 1-((1r,4r)-4-(4-methylpiperazin-1-yl)cyclohexyl)-3-(4-phenoxyphenyl)-1H-pyrazolo[3,4-d]pyrimidin-4-amine]
- IC50 (BTK [22]): 0.915 nM
- IC50 (HCK [25]): < 0.495 nM
